{"source": "patent US9572827B2", "about": "“Pharmaceutical composition for treating depression and method for preparation thereof” (Beijing Wonner Biotech, Ltd. Co., priority 2005, dated 2017)", "key": {"ICR mice [1]": {"system": "ICR mice", "experiment": "Mouse tail-hanging experiment", "format": "in vivo", "settings": "16.7 mg/kg, fed into the stomach 2 times per day for 7 days; 1 hour after last administration; last 5 of 6 minutes", "description": "Experiment 1: “Mouse Tail-Hanging” Experiment Experimental animal: ICR mice Experimental pharmaceuticals: The pharmaceutical of the Embodiment 3 of the present invention is provided by Beijing Wonner Biotech Ltd. Co., the depression-relieving pill is the product of Zhengzhou Yumi Medicines Co. Ltd., and Paroxitine (Paxil) is the product of Zhong Mei Tianjin Smith Kline pharmaceuticals Co. Ltd. I. Group division: 1. Large dose of the Embodiment 3 medicine of the present invention (188.5 mg/kg), 2. middle dose of the Embodiment 3 medicine of the present invention (94.25 mg/kg), 3. small dose of the Embodiment 3 medicine of the present invention (47.125 mg/kg), 4. depression-reliving pill (650 mg/kg), 5. Paroxitine (16.7 mg/kg), and 6. physiological saline. (Ten (10) mice are in each group.) II. Administration of drug: The abovementioned pharmaceutical water solutions are fed into the stomach according to 0.2 ml/10 g body weight, 2 times per day for a total of 7 days. After 1 hour of the last administration of drug, the mouse tail-hanging experiment is proceeded. III. […] The time of non-movement of the mouse for the last 5 minutes is recorded. The variance analysis calculation and the p-value compared with the control of the experimental result are calculated by using SPSS 11.5 analytic software."}, "ICR mice [2]": {"system": "ICR mice", "experiment": "Body temperature decrease experiment induced by resetpine", "format": "in vivo", "settings": "16.7 mg/kg, 2 times per day for 7 days", "source_text": "Experiment 2: Body Temperature Decrease Experiment Induced by Resetpine\nExperimental animal: ICR mice\nExperimental pharmaceuticals: The pharmaceutical of the Embodiment 3 of the present invention is provided by Beijing Wonner Biotech Ltd. Co., the depression-relieving pill is the product of Zhengzhou Yumi Medicines Co. Ltd., and Paroxitine (Paxil) is the product of Zhong Mei Tianjin Smith Kline pharmaceuticals Co. Ltd.\nI. Group division: 1. Large dose of the Embodiment 3 medicine of the present invention (188.5 mg/kg), 2. middle dose of the Embodiment 3 medicine of the present invention (94.25 mg/kg), 3. small dose of the Embodiment 3 medicine of the present invention (47.125 mg/kg), 4. depression-reliving pill (650 mg/kg), 5. Paroxitine (16.7 mg/kg), and 6. physiological saline. (Ten (10) mice are in each group.)\nII. Administration of drug: the abovementioned pharmaceutical water solutions are fed into the stomach according to 0.2 ml/10 g body weight, 2 times per day for a total of 7 days.\nIII. After the last administration of drug, the anal temperature (abbreviated as anal temp.) is determined, and then 2 mg resetpine per kg of the body weight is taken by intraperitoneal injection. After injecting the resetpine for 2, 3, 4, 5, 6 and 7 hours respectively, the anal temperature of the mice are determined.\nThe variance analysis calculation and the p-value compared with the control of the experimental result are calculated by using SPSS 11.5 analytic software."}}, "data": [{"smiles": "Fc1ccc([C@@H]2CCNC[C@H]2COc2ccc3c(c2)OCO3)cc1", "note": "[Paroxitine]", "values": [{"measurement": "Time of non-movement", "setting": "ICR mice [1]", "value": "54.98 ± 46.92", "unit": "s"}, {"measurement": "Decreased anal temp. for 2 hr", "setting": "ICR mice [2]; 2 hr after resetpine 2 mg/kg i.p.", "value": "1.29 ± 0.47", "unit": "°C"}, {"measurement": "Decreased anal temp. for 3 hr", "setting": "ICR mice [2]; 3 hr after resetpine 2 mg/kg i.p.", "value": "1.08 ± 0.35", "unit": "°C"}, {"measurement": "Decreased anal temp. for 4 hr", "setting": "ICR mice [2]; 4 hr after resetpine 2 mg/kg i.p.", "value": "1.55 ± 0.64", "unit": "°C"}, {"measurement": "Decreased anal temp. for 5 hr", "setting": "ICR mice [2]; 5 hr after resetpine 2 mg/kg i.p.", "value": "1.44 ± 0.32", "unit": "°C"}, {"measurement": "Decreased anal temp. for 6 hr", "setting": "ICR mice [2]; 6 hr after resetpine 2 mg/kg i.p.", "value": "2.51 ± 0.47", "unit": "°C"}, {"measurement": "Decreased anal temp. for 7 hr", "setting": "ICR mice [2]; 7 hr after resetpine 2 mg/kg i.p.", "value": "2.76 ± 0.59", "unit": "°C"}]}]}
